According to ChEMBL document CHEMBL3352647, “Synthesis and characterization of novel 1,2-oxazine-based small molecules that targets acetylcholinesterase” (Bioorg Med Chem Lett, 2014):

system: not listed separately; assay: Inhibition of soybean 5-LOX by spectrophotometry; set-up: species or system Glycine max

| SMILES | IC50 [µM] |
| --- | --- |
| COC(=O)C(CC1=C(c2ccc(OC)cc2)CC(C)(C)ON1C(C)=O)C(=O)OC | 1.23 |
| COC(=O)C(CC1=NO[C@@H]2CCCC2[C@H]1c1ccccc1)C(=O)OC (single isomer, unassigned) | 81.7 |
| COC(=O)C(CC1=C(c2ccccc2)CC(C)(C)ON1C(C)=O)C(=O)OC | 6.32 |
| CC(=O)N1OC(C)(C)CC(c2ccccc2)=C1CN1C(=O)c2ccccc2C1=O | 1.88 |
| COC(=O)C(CC1=NO[C@@H]2[C@@H]3CC[C@@H](C3)[C@@H]2[C@H]1c1ccccc1)C(=O)OC | 21.1 |
| COC(=O)CC1=NO[C@@H]2[C@H]3CC[C@H](C3)[C@@H]2[C@H]1c1ccccc1 | 16.7 |
| COC(=O)C(CC1=NOC(C)(C)C[C@H]1c1ccc(OC)cc1)C(=O)OC | 66.9 |
| CC1(C)C[C@@H](c2ccccc2)C(CN2C(=O)c3ccccc3C2=O)=NO1 | 30 |
| COC(=O)C(CC1=NO[C@@H]2CCCC[C@@H]2[C@H]1c1ccc(OC)cc1)C(=O)OC | 33.8 |
| COC(=O)CC1=NO[C@@H]2CCCC[C@@H]2[C@H]1c1ccccc1 | 16.1 |

target: Acetylcholinesterase (Homo sapiens, UniProt P22303); assay: Inhibition of AChE (unknown origin) using ACh chloride as substrate preincubated for 15 mins before substrate addition by Ellman method
Sequence (P22303 whole entry): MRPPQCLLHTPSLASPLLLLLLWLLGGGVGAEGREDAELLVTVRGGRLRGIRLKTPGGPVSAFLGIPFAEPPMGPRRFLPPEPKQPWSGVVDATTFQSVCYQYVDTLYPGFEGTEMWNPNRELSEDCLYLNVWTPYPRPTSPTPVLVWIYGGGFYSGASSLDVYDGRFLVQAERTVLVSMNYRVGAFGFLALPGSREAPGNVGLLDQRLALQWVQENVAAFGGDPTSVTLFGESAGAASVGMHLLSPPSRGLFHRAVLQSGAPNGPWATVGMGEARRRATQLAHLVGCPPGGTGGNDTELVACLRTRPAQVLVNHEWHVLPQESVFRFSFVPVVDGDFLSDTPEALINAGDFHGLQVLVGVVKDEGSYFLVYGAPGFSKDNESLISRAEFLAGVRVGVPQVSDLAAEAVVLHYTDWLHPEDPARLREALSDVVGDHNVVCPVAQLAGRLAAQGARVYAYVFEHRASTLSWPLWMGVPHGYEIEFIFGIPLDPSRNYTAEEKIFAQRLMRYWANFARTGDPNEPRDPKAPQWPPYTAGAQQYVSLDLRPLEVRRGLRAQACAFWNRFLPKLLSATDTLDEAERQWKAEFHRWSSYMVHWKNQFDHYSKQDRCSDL

| SMILES | IC50 [µM] |
| --- | --- |
| COC(=O)C(CC1=C(c2ccc(OC)cc2)CC(C)(C)ON1C(C)=O)C(=O)OC | 14.3 |
| COC(=O)C(CC1=NO[C@@H]2CCCC2[C@H]1c1ccccc1)C(=O)OC (single isomer, unassigned) | 75.4 |
| COC(=O)C(CC1=C(c2ccccc2)CC(C)(C)ON1C(C)=O)C(=O)OC | 12 |
| CC(=O)N1OC(C)(C)CC(c2ccccc2)=C1CN1C(=O)c2ccccc2C1=O | 2.5 |
| COC(=O)CC1=NO[C@@H]2[C@H]3CC[C@H](C3)[C@@H]2[C@H]1c1ccccc1 | 6.3 |
| CC1(C)C[C@@H](c2ccccc2)C(CN2C(=O)c3ccccc3C2=O)=NO1 | 65.3 |
| COC(=O)C(CC1=C(c2ccc(Cl)cc2)CC(C)(C)ON1C(C)=O)C(=O)OC | 46.8 |
| COC(=O)CC1=NO[C@@H]2CCCC[C@@H]2[C@H]1c1ccccc1 | 35.1 |
